Patent publication US20260366023A1, “SORTILIN INHIBITORS FOR TREATMENT OF PATIENTS WITH FUNCTIONAL NEUROENDOCRINE TUMORS” (priority 2023, published 2026)

Tests used:
[1] = system: BON neuroendocrine tumor cells; assay: Serotonin (5HT) content of BON cell lysates after sortilin inhibition, HPLC; format: cell-based, human; settings: 10 μM; 23 h in serotonin free medium, then fresh inhibitor for two more hours; compared to control
Procedure: (§1) (A)-(D) BON neuroendocrine tumor cells were incubated for 23 h in serotonin free medium with (Sort Inh) or without (Control) the sortilin inhibitor AF38469 (10 μM). Afterwards, the serotonin (5HT, A), Tryptophan (TRP, B) and Tyrosin (TYR, C) content as well as the content of the serotonin metabolite 5-hydroxyindoleacetic acid (5-HIAA) in the cell culture supernatant was assessed using high performance liquid chromatography (HPLC). The cells were treated with fresh sortilin inhibitor for two more hours. Subsequently, the 5HT, (E, F), TRP, (G, H) and TYR (I, J) content in the cell lysates was measured in the presence or absence of the secretion inductor of monoamines Paramethoxyamphetamin (PMA) via HPLC as well.
(§2) Next, we wanted to analyze whether sortilin has a functional role in hormone production or secretion of neuroendocrine tumors. We focused on one of the most relevant functional syndromes, i. e. the carcinoid syndrome which is caused due to the overproduction and secretion of serotonin (Clement et al., 2020). […] Afterwards we measured the serotonin (5HT) content in the cell culture supernatant by using high performance liquid chromatography (HPLC) (FIG. 3A-D). […] Subsequently, the 5HT content in the cell lysates was measured by using HPLC as well (FIG. 3E-J).

[2] = system: BON neuroendocrine tumor cells; assay: Serotonin (5HT) content of BON cell culture supernatant (secretion) after sortilin inhibition, HPLC; format: cell-based, human
Procedure: as §1, §2

[3] = system: BON cells; assay: Alamar Blue cell proliferation/viability assay of BON cells after sortilin inhibition; format: cell-based, human; settings: 5 d of sortilin inhibition
Procedure: FIG. 4: Proliferation of BON cells after sortilin inhibition. To exclude the possibility of toxic effects of sortilin inhibition on BON cells, a cell proliferation assay was performed using the Alamar Blue cell viability assay 5 days after sortilin inhibition.
To exclude the possibility of toxic effects of sortilin inhibition on the BON cells and thereby reducing 5HT production, we performed a cell proliferation assay using Alamar Blue.

[4] = system: murine intestinal organoids enriched with neuroendocrine cells; assay: Serotonin content of murine intestinal organoids enriched with neuroendocrine cells, HPLC; format: cell-based; settings: 10 μM, four days, organoid lysates, vs control
Procedure: FIG. 7: Effect of sortilin inhibition on serotonin content of neuroendocrine organoids. (A) Experimental scheme for testing the effects of sortilin inhibition on serotonin levels in neuroendocrine organoids. Murine intestinal organoids are generated and enriched with neuroendocrine cells as previously described in (Kawasaki et al, 2018; Basak et al, 2017). […] Organoids are subsequently incubated four days in the absence (control) or the presence of the sortilin inhibitor AF38469 (10 μM). The lysates of these organoids are next harvested, and serotonin levels are measured by HPLC.
Some of these organoids were treated additionally four days with the sortilin inhibitor AF38469 (10 μM). Subsequently, the lysates of these organoids were harvested, and serotonin was measured by HPLC (FIG. 7A).

[5] = system: sortilin; settings: Schroder et al, 2014; cited from earlier work
[6] = Schroder et al, 2014; cited from earlier work
[7] = system: sortilin; settings: Lee et al., 2014; cited from earlier work
[8] = cited from earlier work
[9] = cited from earlier work; remark: listed apart in the source
[10] = system: sortilin; settings: Phase 2 and Phase 3 clinical trials, including NCT04374136, NCT03987295, NCT03636204 and NCT05053035; cited from earlier work

Cc1cccc(NC(=O)c2ccc(C(F)(F)F)cc2C(=O)O)n1 [AF38469, 2-[[(6-methyl-2-pyridinyl)amino]carbonyl]-5-(trifluoromethyl)-benzoic acid]
cellular content of 5HT [1]: significantly lower
concentration of 5HT in the supernatants ([2]; 10 μM, 23 h in serotonin free medium, HPLC): below the detection level
secretion of serotonin by NEN cells ([2]; NEN cells, summary statement referring to the Examples): suppress
reduction in cell proliferation [3]: could exclude any reduction in cell proliferation
concentration of serotonin (5HT) per cell [4]: lower concentration
selectivity for sortilin over several of its naturally occurring ligands, including neurotensin-1 [5]: highly selective
oral bioavailability [6]: orally bioavailable

Cc1ccc(C(C)(C)C)c(OCCN2CCCC(C)C2)c1 (stereo not drawn) [MPEP, 1-[2-(2-tert-butyl-5-methylphenoxy)-ethyl]-3-methylpiperidine]
degradation of sortilin [7]: increasing
sortilin protein levels [7]: suppressing

Cc1cc(=O)oc2c(CN[C@@H](CC(C)C)C(=O)O)c(O)ccc12 [AF40431, (2S)-2-{[(7-hydroxy-4-methyl-2-oxo-2H-chromen-8-yl)methyl]amino}-4-methylpentanoic acid]
solubility [8]: comparably poor
membrane permeability [9]: comparably poor

B1: AL001: anti-sortilin antibody; heavy chain having an amino acid sequence of SEQ ID NO: 1 and a light chain having an amino acid sequence of SEQ ID NO: 2 (antibody, chains of the INN, looked up, V domains shown)
VH: QVQLQESGPGLVKPSETLSLTCAVSGYSISSGYYWGWIRQPPGKGLEWIGTIYHSGSTYYNPSLKSRVTISVDTSKNQFSLKLSSVTAADTAVYYCARQGSIKQGYYGMDVWGQGTTVTVSS
VL: DIVMTQSPLSLPVTPGEPASISCRSSQSLLRSTGYNYLDWYLQKPGQSPQLLIYLGSNRASGVPDRFSGSGSGTDFTLKISRAEAEDVGVYYCMQQQEAPLTFGGGTKVEIK
treatment of frontotemporal dementia and/or ALS [10]: successfully tested
